Structures are written as SMILES. “Also recorded” adds a separate entry of the source.

Holding throughout (type): cell-based
In experiment [1] the test system is rat aorta. As to the kind of experiment: Contractile responses of rat aortic rings to norepinephrine, serotonin and U46619 (isolated organ bath). The conditions noted are these: for inhibitory effect on contractile responses to norepinephrine, serotonin, and U46619: summary in discussion; for dependence of the inhibition of contractile responses on the endothelium: rat aortic rings with versus without intact endothelium. An excerpt: Male Wistar rats (250-350 g; Charles River Laboratories, Portage, Mich.) were sacrificed by cervical dislocation. The aorta was removed and cleaned of extraneous tissue and cut into ring segments, each approximately 4-5 mm long. In some tissues, endothelium was removed by rotating the ring segment around the tip of a forceps 10 times. Lack of tissue relaxation to acetylcholine (10^-6 M) after contraction with norepinephrine (10^-7 M) was used as evidence for denuded endothelium. […] Tissues were placed under an optimal force of 4 grams and equilibrated for one hour with washes every 15 minutes. […] All tissues were initially challenged with KCl (67 mM) to establish viability. Concentration-response curves were generated in a cumulative fashion and are reported as a percentage of an initial KCl contraction (67 mM) produced in each tissue. Vehicle, β-estradiol, 14 or 16 were added to the tissues 60 minutes prior to initiating the concentration-response curves to agonists. […] Only one agonist concentration-response curve was generated in each tissue. All results are expressed as mean±SE where n represents the number of rings examined.

In experiment [2] the target is T1, calcium channels in vascular tissue (Rattus norvegicus, UniProt P22002).
T1 construct: BayK 8644-induced contraction
T1 sequence (P22002 whole entry): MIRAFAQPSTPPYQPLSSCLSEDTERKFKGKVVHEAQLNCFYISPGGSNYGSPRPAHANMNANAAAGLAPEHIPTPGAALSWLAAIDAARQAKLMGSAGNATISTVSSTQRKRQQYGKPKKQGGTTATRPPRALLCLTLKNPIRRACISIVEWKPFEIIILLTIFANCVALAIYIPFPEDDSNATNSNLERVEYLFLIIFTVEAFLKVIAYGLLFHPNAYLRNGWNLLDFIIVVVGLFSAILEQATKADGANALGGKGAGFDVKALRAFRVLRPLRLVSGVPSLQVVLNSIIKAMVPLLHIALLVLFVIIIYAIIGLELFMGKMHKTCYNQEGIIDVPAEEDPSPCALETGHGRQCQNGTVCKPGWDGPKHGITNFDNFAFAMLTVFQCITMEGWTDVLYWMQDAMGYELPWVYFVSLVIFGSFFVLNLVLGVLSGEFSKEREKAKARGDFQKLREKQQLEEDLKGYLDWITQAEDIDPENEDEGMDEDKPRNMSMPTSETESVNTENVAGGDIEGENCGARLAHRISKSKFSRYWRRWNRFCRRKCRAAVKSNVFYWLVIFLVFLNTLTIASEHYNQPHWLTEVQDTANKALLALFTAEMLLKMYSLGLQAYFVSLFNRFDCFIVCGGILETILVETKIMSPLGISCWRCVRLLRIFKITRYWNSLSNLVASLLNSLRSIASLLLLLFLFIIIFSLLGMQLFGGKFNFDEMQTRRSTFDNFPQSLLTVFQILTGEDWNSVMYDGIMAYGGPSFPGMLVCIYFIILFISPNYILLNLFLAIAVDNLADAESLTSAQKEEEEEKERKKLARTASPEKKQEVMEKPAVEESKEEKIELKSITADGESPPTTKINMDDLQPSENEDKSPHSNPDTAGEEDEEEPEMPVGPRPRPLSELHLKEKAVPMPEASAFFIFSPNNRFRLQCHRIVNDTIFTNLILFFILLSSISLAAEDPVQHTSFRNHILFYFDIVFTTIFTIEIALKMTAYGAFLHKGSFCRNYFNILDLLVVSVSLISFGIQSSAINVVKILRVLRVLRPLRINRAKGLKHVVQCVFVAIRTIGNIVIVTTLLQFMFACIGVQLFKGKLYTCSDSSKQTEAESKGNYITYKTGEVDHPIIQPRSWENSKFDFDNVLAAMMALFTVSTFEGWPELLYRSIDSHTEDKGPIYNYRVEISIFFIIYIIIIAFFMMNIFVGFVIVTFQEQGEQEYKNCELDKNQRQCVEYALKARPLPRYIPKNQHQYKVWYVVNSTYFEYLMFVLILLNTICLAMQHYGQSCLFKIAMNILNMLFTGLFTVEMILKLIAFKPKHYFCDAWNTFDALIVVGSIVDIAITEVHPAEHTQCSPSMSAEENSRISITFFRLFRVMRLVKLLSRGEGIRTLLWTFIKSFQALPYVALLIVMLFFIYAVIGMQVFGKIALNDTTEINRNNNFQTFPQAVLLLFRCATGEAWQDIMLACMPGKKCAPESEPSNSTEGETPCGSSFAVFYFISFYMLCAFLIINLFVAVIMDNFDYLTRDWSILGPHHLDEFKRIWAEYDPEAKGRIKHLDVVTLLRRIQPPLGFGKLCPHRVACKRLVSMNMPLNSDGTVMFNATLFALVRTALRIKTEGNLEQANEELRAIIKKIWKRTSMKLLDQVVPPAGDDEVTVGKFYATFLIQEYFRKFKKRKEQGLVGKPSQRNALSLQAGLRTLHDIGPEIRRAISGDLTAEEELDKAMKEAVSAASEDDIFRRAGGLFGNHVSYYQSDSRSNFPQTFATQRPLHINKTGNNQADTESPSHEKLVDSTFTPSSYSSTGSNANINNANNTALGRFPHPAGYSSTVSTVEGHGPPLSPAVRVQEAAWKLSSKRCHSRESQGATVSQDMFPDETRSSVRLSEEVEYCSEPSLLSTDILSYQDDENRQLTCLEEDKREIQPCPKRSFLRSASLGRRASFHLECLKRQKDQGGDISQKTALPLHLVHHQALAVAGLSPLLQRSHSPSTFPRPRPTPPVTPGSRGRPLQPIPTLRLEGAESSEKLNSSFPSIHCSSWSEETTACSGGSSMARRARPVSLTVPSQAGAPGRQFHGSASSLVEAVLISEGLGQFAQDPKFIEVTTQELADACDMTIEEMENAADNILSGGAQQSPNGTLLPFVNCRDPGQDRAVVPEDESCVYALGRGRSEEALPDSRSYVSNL
As to the kind of experiment: Contractile response of rat aorta to the calcium agonist BayK 8644. The conditions noted are these: for inhibition of the contraction to BayK 8644: absence of an intact endothelium, 10 mM KCl prior to BayK 8644 (FIGS. 7 and 8). The text has this: (§1) Male Wistar rats (250-350 g; Charles River Laboratories, Portage, Mich.) were sacrificed by cervical dislocation. The aorta was removed and cleaned of extraneous tissue and cut into ring segments, each approximately 4-5 mm long. In some tissues, endothelium was removed by rotating the ring segment around the tip of a forceps 10 times. Lack of tissue relaxation to acetylcholine (10^-6 M) after contraction with norepinephrine (10^-7 M) was used as evidence for denuded endothelium. Tissues with an intact endothelium relaxed to acetylcholine with 88.5±1.6% (n-11) relaxation.
Ring segments were placed between two stainless steel hooks and mounted in isolated organ baths containing 10 ml of modified Krebs' bicarbonate buffer of the following composition (mM): NaCl, 118.2; KCl, 4.6' CaCl2.2H2 O, 1.6; KH2 PO4, 1.2; MgSO4, 1.2; glucose, 10; and NaHCO3, 24.8. Organ bath solutions were aerated with 95% O2 /5% CO2 and maintained at 37° C. Tissues were placed under an optimal force of 4 grams and equilibrated for one hour with washes every 15 minutes. Changes in force were recorded and analyzed by a Biopac MP100 (World Precision Instruments, Sarasota, Fla.) data acquisition system via Sensotec (model MBL 5514-02) transducers (Sensotec Inc. Columbus, Ohio).
All tissues were initially challenged with KCl (67 mM) to establish viability. Concentration-response curves were generated in a cumulative fashion and are reported as a percentage of an initial KCl contraction (67 mM) produced in each tissue. Vehicle, β-estradiol, 14 or 16 were added to the tissues 60 minutes prior to initiating the concentration-response curves to agonists. In studies with BayK 8644, tissues were exposed to 10 mM KCl prior to initiating the concentration-response curves for BayK 8644. Only one agonist concentration-response curve was generated in each tissue. All results are expressed as mean±SE where n represents the number of rings examined. […]

For experiment [3], the system named is rat aorta. The experiment is described as follows: Endothelium integrity: relaxation to acetylcholine after contraction with norepinephrine. The conditions noted are these: acetylcholine 10^-6 M after contraction with norepinephrine 10^-7 M, tissues with intact endothelium, n-11.
Source text: as §1

[4] abbreviates: 10^-6 and 10^-5 M, rat aorta with and without intact endothelium, added 60 minutes prior to agonist.

As for `O=C(c1ccc(OCCN2CCCC2)cc1)c1c(-c2ccc(O)cc2)sc2cc(O)ccc12` [Compound 16, 6-hydroxy-2-(4-hydroxyphenyl)-3-[4-(2-pyrrolidinoethoxy)benzoyl]benzo[b]thiophene], in experiment [1] (setting [4]), the “inhibition of contractile response to U46619” value was “potently inhibited”, the “inhibition of contractile response to norepinephrine” value is “potently inhibited” and the “inhibition of contractile response to serotonin” value was “potently inhibited”. For the same compound, in experiment [1] (rat aorta), the “potency in inhibiting contraction to serotonin relative to norepinephrine or U46619” value is “more potent in inhibiting the contractile response to serotonin relative to norepinephrine or U46619”; the “inhibitory effect on contractile responses to norepinephrine, serotonin, and U46619” value was “marked inhibitory effect”. Further, the “dependence of the inhibition of contractile responses on the endothelium” value in experiment [1] is on record as “appeared independent of the endothelium”. The “inhibition of the contraction to BayK 8644” value in experiment [2] is “inhibition of the contraction to BayK 8644 occurred”. Further, in experiment [2] (comparison between substances), the “relative potency as calcium channel antagonist” value is “considerably more potent as a calcium channel antagonist than 14; also recorded: more potent calcium channel antagonist in vascular tissue than estrogen”.

With `O=C(c1ccc(OCCN2CCCCC2)cc1)c1c(-c2ccc(O)cc2)sc2cc(O)ccc12` [Compound 14, 6-hydroxy-2-(4-hydroxyphenyl)-3-[4-(2-piperidinoethoxy)benzoyl]benzo[b]thiophene], the “inhibition of contractile responses to serotonin” value in experiment [1] (rat aorta with and without intact endothelium (FIG. 4), concentration not given) is on record as “inhibited”. In addition, the “inhibition of serotonin response compared with norepinephrine response” value in experiment [1] (rat aorta with and without intact endothelium (FIGS. 4 and 5)) is “greater than with norepinephrine”. Besides, the “inhibitory effect on contractile responses to norepinephrine, serotonin, and U46619” value in experiment [1] (rat aorta) is reported as “marked inhibitory effect”. For the same compound, the “dependence of the inhibition of contractile responses on the endothelium” value in experiment [1] was “independent of an intact endothelium”. In addition, in experiment [2], the “inhibition of the contraction to BayK 8644” value was “inhibition of the contraction to BayK 8644 occurred”.

In experiment [3], `CC(=O)OCC[N+](C)(C)C` [acetylcholine] registered a percent relaxation to acetylcholine at 1 µM of 88.5 ± 1.6%.

For the origin of these results see patent publication US5840747A, “Calcium channel antagonists” (Eli Lilly and Company, priority 1995, dated 1998).
